Paper PMC12439480, “Dimeric CCK2R radiotheranostic tracers synergize with mTOR inhibition for enhanced tumor therapy” (Theranostics, 2025)
Numbered stars: 1 amine (or outer) side, 2 acyl side, 3 side chain; on linkers, the order of the positions; unused ones are H or OH. Square brackets hold non-standard residues; d marks the D form. Side chains are listed from the residue outwards. Peptide text beside a SMILES is read from it. * marks the point of attachment. DOTA = O=C(O)CN1CCN(CC(=O)O)CCN(CC(=O)*)CCN(CC(=O)O)CC1; d(γGlu) = O=C(O)[C@@H](CCC(=O)[*:2])N[*:1]; 1Nal = N[C@@H](Cc1cccc2ccccc12)C(=O)O; NMeNle = CCCC[C@H](NC)C(=O)O; PEG4 = NCCOCCOCCOCCOCCC(=O)O

Test: Ex vivo biodistribution of 177Lu-labeled compound
Set-up: species or system BALB/c nude mice
Settings: mouse, in vivo
Protocol: To evaluate the biodistribution of [^177Lu]Lu-DOTA-CCK2R-dimer, AR42J tumor-bearing mice received intravenous (i.v.) injections of 3.7 MBq (≈ 120 pmol) of [^177Lu]Lu-DOTA-CCK2R-dimer (dissolved in 200 μL of saline; n = 3/group), and Mice were sacrificed at 1, 4, 24, 48, 72, and 96 h post-injection. The tissues of interest were excised, weighed, and analyzed for radioactivity using a γ-counter.
All animal studies were approved by the Ethics Committee of Fudan University Shanghai Cancer Center (No. FUSCC-IACUC- S2023- 0003). Five-week-old female BALB/c nude mice were purchased from Shanghai SLAC Laboratory Animal
Company. To establish cell-derived xenograft (CDX) models, 1 × 10⁶ AR42J cells (100 μL) were subcutaneously inoculated into the right shoulder of each mouse. […]
Radioactivity levels were measured using a gamma counter, with decay correction applied based on the injection time. The percentage of injected dose per gram of tissue (%ID/g) was calculated for each time point. […]

CCCC[C@@H](C(=O)N[C@@H](CC(=O)O)C(=O)N[C@@H](Cc1cccc2ccccc12)C(N)=O)N(C)C(=O)[C@H](Cc1c[nH]c2ccccc12)NC(=O)CCOCCOCCOCCOCCNC(=O)CC[C@@H](NC(=O)CC[C@H](NC(=O)CN1CCN(CC(=O)O)CCN(CC(=O)O)CCN(CC(=O)O)CC1)C(=O)N[C@H](CCC(=O)NCCOCCOCCOCCOCCC(=O)N[C@@H](Cc1c[nH]c2ccccc12)C(=O)N(C)[C@@H](CCCC)C(=O)N[C@@H](CC(=O)O)C(=O)N[C@@H](Cc1cccc2ccccc12)C(N)=O)C(=O)O)C(=O)O [[177Lu]Lu-DOTA-CCK2R-dimer, metal not drawn] ({DOTA}-E([d(γGlu)-PEG4-Trp-NMeNle-Asp-1Nal-NH2])[d(γGlu)][PEG4]W[NMeNle]D[1Nal]-NH2)
tissue uptake at 48 h (Bladder uptake): 0.03 ± 0.01 %ID/g | tissue uptake at 72 h (Bladder uptake): 0.06 ± 0.03 %ID/g | tissue uptake at 96 h (Bladder uptake): 0.1 ± 0.05 %ID/g | tissue uptake at 1 h (Blood uptake): 6.93 ± 1.84 %ID/g | tissue uptake at 4 h (Blood uptake): 1.19 ± 0.3 %ID/g | tissue uptake at 24 h (Blood uptake): 0.05 ± 0.01 %ID/g | tissue uptake at 48 h (Blood uptake): 0.02 ± 0.01 %ID/g | tissue uptake at 72 h (Blood uptake): 0.002 ± 0.0005 %ID/g | tissue uptake at 96 h (Blood uptake): 0.008 ± 0.007 %ID/g | tissue uptake at 1 h (Bone uptake): 0.65 ± 0.27 %ID/g | tissue uptake at 4 h (Bone uptake): 0.35 ± 0.19 %ID/g | tissue uptake at 24 h (Bone uptake): 0.04 ± 0.02 %ID/g | tissue uptake at 48 h (Bone uptake): 0.004 ± 0.001 %ID/g | tissue uptake at 72 h (Bone uptake): 0.03 ± 0.02 %ID/g | tissue uptake at 96 h (Bone uptake): 0.02 ± 0.01 %ID/g | tissue uptake at 1 h (Brain uptake): 0.14 ± 0.01 %ID/g | tissue uptake at 4 h (Brain uptake): 0.03 ± 0.01 %ID/g | tissue uptake at 24 h (Brain uptake): 0.003 ± 0.002 %ID/g | tissue uptake at 48 h (Brain uptake): 0.003 ± 0.002 %ID/g | tissue uptake at 72 h (Brain uptake): 0.004 ± 0.003 %ID/g | tissue uptake at 96 h (Brain uptake): 0.006 ± 0.002 %ID/g | tissue uptake at 1 h (Heart uptake): 1.29 ± 0.41 %ID/g | tissue uptake at 4 h (Heart uptake): 0.67 ± 0.34 %ID/g | tissue uptake at 24 h (Heart uptake): 0.05 ± 0.03 %ID/g | tissue uptake at 48 h (Heart uptake): 0.02 ± 0.02 %ID/g | tissue uptake at 72 h (Heart uptake): 0.02 ± 0.008 %ID/g | tissue uptake at 96 h (Heart uptake): 0.03 ± 0.01 %ID/g | tissue uptake at 1 h (Kidney uptake): 8.92 ± 1.05 %ID/g | tissue uptake at 4 h (Kidney uptake): 6.79 ± 1.58 %ID/g | tissue uptake at 24 h (Kidney uptake): 3.43 ± 0.84 %ID/g | tissue uptake at 48 h (Kidney uptake): 1.59 ± 1 %ID/g | tissue uptake at 72 h (Kidney uptake): 1.6 ± 0.39 %ID/g | tissue uptake at 96 h (Kidney uptake): 1 ± 0.5 %ID/g | tissue uptake at 1 h (Large intestine uptake): 1.14 ± 0.38 %ID/g | tissue uptake at 4 h (Large intestine uptake): 0.61 ± 0.03 %ID/g | tissue uptake at 24 h (Large intestine uptake): 0.07 ± 0.01 %ID/g | tissue uptake at 48 h (Large intestine uptake): 0.05 ± 0.02 %ID/g | tissue uptake at 72 h (Large intestine uptake): 0.04 ± 0.03 %ID/g | tissue uptake at 96 h (Large intestine uptake): 0.05 ± 0.03 %ID/g | tissue uptake at 1 h (Liver uptake): 4.44 ± 1.8 %ID/g | tissue uptake at 4 h (Liver uptake): 3.42 ± 0.75 %ID/g | tissue uptake at 24 h (Liver uptake): 0.61 ± 0.11 %ID/g | tissue uptake at 48 h (Liver uptake): 0.58 ± 0.16 %ID/g | tissue uptake at 72 h (Liver uptake): 0.37 ± 0.05 %ID/g | tissue uptake at 96 h (Liver uptake): 0.42 ± 0.11 %ID/g | tissue uptake at 1 h (Lung uptake): 2.4 ± 0.05 %ID/g | tissue uptake at 4 h (Lung uptake): 1.06 ± 0.39 %ID/g | tissue uptake at 24 h (Lung uptake): 0.04 ± 0.03 %ID/g | tissue uptake at 48 h (Lung uptake): 0.02 ± 0.01 %ID/g | tissue uptake at 72 h (Lung uptake): 0.01 ± 0.01 %ID/g | tissue uptake at 96 h (Lung uptake): 0.02 ± 0.005 %ID/g | tissue uptake at 1 h (Muscle uptake): 0.36 ± 0.1 %ID/g | tissue uptake at 4 h (Muscle uptake): 0.16 ± 0.17 %ID/g | tissue uptake at 24 h (Muscle uptake): 0.01 ± 0.01 %ID/g | tissue uptake at 48 h (Muscle uptake): 0.007 ± 0.003 %ID/g | tissue uptake at 72 h (Muscle uptake): 0.007 ± 0.002 %ID/g | tissue uptake at 96 h (Muscle uptake): 0.006 ± 0.004 %ID/g | tissue uptake at 1 h (Small intestine uptake): 1.45 ± 0.39 %ID/g | tissue uptake at 4 h (Small intestine uptake): 0.58 ± 0.31 %ID/g | tissue uptake at 24 h (Small intestine uptake): 0.06 ± 0.04 %ID/g | tissue uptake at 48 h (Small intestine uptake): 0.06 ± 0.01 %ID/g | tissue uptake at 72 h (Small intestine uptake): 0.02 ± 0.01 %ID/g | tissue uptake at 96 h (Small intestine uptake): 0.04 ± 0.03 %ID/g | tissue uptake at 1 h (Spleen uptake): 2.62 ± 1.02 %ID/g | tissue uptake at 4 h (Spleen uptake): 2.23 ± 0.32 %ID/g | tissue uptake at 24 h (Spleen uptake): 0.15 ± 0.08 %ID/g | tissue uptake at 48 h (Spleen uptake): 0.02 ± 0.01 %ID/g | tissue uptake at 72 h (Spleen uptake): 0.05 ± 0.03 %ID/g | tissue uptake at 96 h (Spleen uptake): 0.15 ± 0.09 %ID/g | tissue uptake at 1 h (Stomach uptake): 3.88 ± 0.66 %ID/g | tissue uptake at 4 h (Stomach uptake): 3.05 ± 0.6 %ID/g | tissue uptake at 24 h (Stomach uptake): 1.07 ± 0.28 %ID/g | tissue uptake at 48 h (Stomach uptake): 1.04 ± 0.17 %ID/g | tissue uptake at 72 h (Stomach uptake): 0.26 ± 0.11 %ID/g | tissue uptake at 96 h (Stomach uptake): 0.24 ± 0.3 %ID/g | tissue uptake at 1 h (Tumor uptake): 19.2 ± 8.43 %ID/g | tissue uptake at 4 h (Tumor uptake): 14.7 ± 2.83 %ID/g | tissue uptake at 24 h (Tumor uptake): 6.12 ± 1.45 %ID/g | tissue uptake at 48 h (Tumor uptake): 4.32 ± 0.75 %ID/g | tissue uptake at 72 h (Tumor uptake): 2.01 ± 0.47 %ID/g | tissue uptake at 96 h (Tumor uptake): 1.1 ± 0.04 %ID/g
